Assay results from the NIST ThermoML archive (doi:10.1021/acs.jced.5b00931).

CCCC[N+]1(C)CCCCC1.O=S(=O)([O-])C(F)(F)F [1-butyl-1-methylpiperidinium trifluoromethanesulfonate]
101.33 kPa, Liquid
Details	mass density, Vibrating tube method [kg/m3]	viscosity, Falling or rolling sphere viscometry [mPa·s]
333.15 K	1216.8	107
338.15 K	1213.3	84.6
343.15 K	1209.8	67.8
348.15 K	1206.4	55.2
353.15 K	1202.9	45.6
358.15 K	1199.5	38
363.13 K	1196.1	–
363.15 K	–	32

CCCC[N+]1(C)CCCC1.O=S(=O)([O-])C(F)(F)F [1-butyl-1-methylpyrrolidinium trifluoromethanesulfonate]
101.33 kPa, Liquid
Details	mass density, Vibrating tube method [kg/m3]	viscosity, Falling or rolling sphere viscometry [mPa·s]
293.15 K	1255.7	217
298.15 K	1252	164
303.15 K	1248.3	128
308.15 K	1244.7	101
313.15 K	1241	80.7
318.15 K	1237.4	65.7
323.15 K	1233.8	54.3
328.15 K	1230.2	42.4
333.15 K	1226.7	35.7
338.15 K	1223.1	30.4
343.15 K	1219.6	26.1
348.15 K	1216.1	22.7
353.15 K	1212.6	19.8
358.15 K	1209	17.4
363.13 K	1205.5	–
363.15 K	–	15.5

CCCC[n+]1cccc(C)c1.O=S(=O)([O-])C(F)(F)F [1-butyl-3-methylpyridinium trifluoromethanesulfonate]
101.33 kPa, Liquid
Details	mass density, Vibrating tube method [kg/m3]	viscosity, Falling or rolling sphere viscometry [mPa·s]
293.15 K	1279	165
298.15 K	1275.2	126
303.15 K	1271.4	95.7
308.15 K	1267.6	75.9
313.15 K	1263.8	60.2
318.15 K	1260	45.8
323.15 K	1256.2	37.6
328.15 K	1252.5	31.4
333.15 K	1248.7	26.3
338.15 K	1245	22.6
343.15 K	1241.2	19.4
348.15 K	1237.5	16.9
353.15 K	1233.8	14.9
358.15 K	1230.1	13.1
363.13 K	1226.5	–
363.15 K	–	11.6
